Assay results reported in ChEMBL document CHEMBL1130863, “N3-methyl-mafosfamide as a chemically stable, alternative prodrug of mafosfamide” (1998).

How the values were obtained:
[1] = test system: NIH3T3; test: In vitro cytotoxicity was evaluated in mouse embryo BALB/c 3T3 cells; assay type: functional; settings: read-out: LC50 (the source's name)
[2] = test system: L1210; test: Compound was evaluated against L1210 leukemia in mice expressed as increase of life span; Compound was active.; assay type: functional, Mus musculus

Row | Structure (SMILES) | CC50 [1] | ILS [2]
1 | O=P1(N(CCCl)CCCl)NCCCO1 (stereo not drawn) [CYCLOPHOSPHAMIDE ANHYDROUS] | 37.6 µM | –
2 | CN1C(SCCS(=O)(=O)O)CCOP1(=O)N(CCCl)CCCl (stereo not drawn) | 3.6 µM | >29%
